Measurements as given in PubChem BioAssay AID2060907 (Molecular Pharmacology Branch, DTP, NCI, 2025).
Where “and” joins values, the source holds several entries; their conditions need not be identical. Equal values may be shown once.

Tested on: 388556-164-R-J1-PDC complex spheroid viability
Assay: Anticancer human tumor 388556-164-R-J1-PDC patient-derived colon adenocarcinoma cell line growth inhibition [RAS]
Settings: for viability, T/C: stronger effect = lower value
How it was run: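 Multi-cell-type spheroids: tumor cells plus HUVEC endothelial cells and mesenchymal stem cells. RAS-pathway inhibitors were combined with targeted agents, each dosed in half-log steps down from clinical Cmax, or from 10 microM when Cmax was unknown.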
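Also: spheroids exposed to compound for 7 days before readout.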
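For viability, T/C in this document: 100% = DMSO vehicle control luminescence.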

CC1(O)CCCC1n1c(=O)c(C(F)F)cc2cnc(NC3CCN(S(C)(=O)=O)CC3)nc21 (stereo not given) + C=CC(=O)N1CCN(c2nc(OCC3CCCN3C)nc3c(F)c(-c4nc(N)cc(C)c4C(F)(F)F)c(Cl)cc23)C(C)C1
IC50 (curve of first compound, second compound 0.00316 µM): > 10000 nM
IC50 (curve of first compound, second compound 0.01 µM): > 10000 nM
IC50 (curve of first compound, second compound 0.0316 µM): > 10000 nM
IC50 (curve of first compound, second compound 0.1 µM): > 10000 nM
IC50 (curve of first compound, second compound 0.316 µM): > 10000 nM
IC50 (curve of first compound, second compound 1 µM): > 10000 nM
viability, T/C (second compound 0.00316 µM, first compound 0.0316 µM): 98.3%
viability, T/C (second compound 0.00316 µM, first compound 0.1 µM): 103%
viability, T/C (second compound 0.00316 µM, first compound 0.316 µM): 105%
viability, T/C (second compound 0.00316 µM, first compound 1 µM): 99.8%
viability, T/C (second compound 0.00316 µM, first compound 3.16 µM): 109%
viability, T/C (second compound 0.00316 µM, first compound 10 µM): 73.5%
viability, T/C (second compound 0.01 µM, first compound 0.0316 µM): 93.7%
viability, T/C (second compound 0.01 µM, first compound 0.1 µM): 107%
viability, T/C (second compound 0.01 µM, first compound 0.316 µM): 101%
viability, T/C (second compound 0.01 µM, first compound 1 µM): 98.9%
viability, T/C (second compound 0.01 µM, first compound 3.16 µM): 105%
viability, T/C (second compound 0.01 µM, first compound 10 µM): 77.2%
viability, T/C (second compound 0.0316 µM, first compound 0.0316 µM): 101%
viability, T/C (second compound 0.0316 µM, first compound 0.1 µM): 104%
viability, T/C (second compound 0.0316 µM, first compound 0.316 µM): 102%
viability, T/C (second compound 0.0316 µM, first compound 1 µM): 108%
viability, T/C (second compound 0.0316 µM, first compound 3.16 µM): 115%
viability, T/C (second compound 0.0316 µM, first compound 10 µM): 81%
viability, T/C (second compound 0.1 µM, first compound 0.0316 µM): 103%
viability, T/C (second compound 0.1 µM, first compound 0.1 µM): 108%
viability, T/C (second compound 0.1 µM, first compound 0.316 µM): 99.5%
viability, T/C (second compound 0.1 µM, first compound 1 µM): 99.2%
viability, T/C (second compound 0.1 µM, first compound 3.16 µM): 102%
viability, T/C (second compound 0.1 µM, first compound 10 µM): 76%
viability, T/C (second compound 0.316 µM, first compound 0.0316 µM): 102%
viability, T/C (second compound 0.316 µM, first compound 0.1 µM): 91.7%
viability, T/C (second compound 0.316 µM, first compound 0.316 µM): 96.9%
viability, T/C (second compound 0.316 µM, first compound 1 µM): 97.7%
viability, T/C (second compound 0.316 µM, first compound 3.16 µM): 101%
viability, T/C (second compound 0.316 µM, first compound 10 µM): 75.3%
viability, T/C (second compound 1 µM, first compound 0.0316 µM): 98.7%
viability, T/C (second compound 1 µM, first compound 0.1 µM): 102%
viability, T/C (second compound 1 µM, first compound 0.316 µM): 100%
viability, T/C (second compound 1 µM, first compound 1 µM): 111%
viability, T/C (second compound 1 µM, first compound 3.16 µM): 104%
viability, T/C (second compound 1 µM, first compound 10 µM): 68.7%

NC1c2ccccc2OC12CCN(c1cnc3c(N4CCCc5ncccc54)n[nH]c3n1)CC2 (stereo not given) + CCn1c(-c2cccnc2C(C)OC)c2c3cc(ccc31)N1CCOC(CC(NC(=O)C(C(C)C)N(C)C(=O)C3(F)CCN(C(=O)C#CC(C)(C)N(C)C)CC3)C(=O)N3CCCC(N3)C(=O)OCC(C)(C)C2)C1
IC50 (curve of first compound, second compound 0.000949 µM): 192 nM
IC50 (curve of first compound, second compound 0.003 µM): 220 nM
IC50 (curve of first compound, second compound 0.00949 µM): 239 nM
IC50 (curve of first compound, second compound 0.03 µM): 129 nM
IC50 (curve of first compound, second compound 0.0949 µM): 180 nM
IC50 (curve of first compound, second compound 0.3 µM): 100 nM
viability, T/C (second compound 0.000949 µM, first compound 0.0316 µM): 63.8%
viability, T/C (second compound 0.000949 µM, first compound 0.1 µM): 54.9%
viability, T/C (second compound 0.000949 µM, first compound 0.316 µM): 46%
viability, T/C (second compound 0.000949 µM, first compound 1 µM): 40.4%
viability, T/C (second compound 0.000949 µM, first compound 3.16 µM): 44%
viability, T/C (second compound 0.000949 µM, first compound 10 µM): 35.3%
viability, T/C (second compound 0.003 µM, first compound 0.0316 µM): 70.6%
viability, T/C (second compound 0.003 µM, first compound 0.1 µM): 56.3%
viability, T/C (second compound 0.003 µM, first compound 0.316 µM): 49.1%
viability, T/C (second compound 0.003 µM, first compound 1 µM): 37.1%
viability, T/C (second compound 0.003 µM, first compound 3.16 µM): 36.2%
viability, T/C (second compound 0.003 µM, first compound 10 µM): 33%
viability, T/C (second compound 0.00949 µM, first compound 0.0316 µM): 77.8%
viability, T/C (second compound 0.00949 µM, first compound 0.1 µM): 57.9%
viability, T/C (second compound 0.00949 µM, first compound 0.316 µM): 47.1%
viability, T/C (second compound 0.00949 µM, first compound 1 µM): 41.5%
viability, T/C (second compound 0.00949 µM, first compound 3.16 µM): 42%
viability, T/C (second compound 0.00949 µM, first compound 10 µM): 35.9%
viability, T/C (second compound 0.03 µM, first compound 0.0316 µM): 73.1%
viability, T/C (second compound 0.03 µM, first compound 0.1 µM): 50.4%
viability, T/C (second compound 0.03 µM, first compound 0.316 µM): 44.6%
viability, T/C (second compound 0.03 µM, first compound 1 µM): 38.5%
viability, T/C (second compound 0.03 µM, first compound 3.16 µM): 37.2%
viability, T/C (second compound 0.03 µM, first compound 10 µM): 35.4%
viability, T/C (second compound 0.0949 µM, first compound 0.0316 µM): 66.8%
viability, T/C (second compound 0.0949 µM, first compound 0.1 µM): 56.3%
viability, T/C (second compound 0.0949 µM, first compound 0.316 µM): 43.5%
viability, T/C (second compound 0.0949 µM, first compound 1 µM): 38.1%
viability, T/C (second compound 0.0949 µM, first compound 3.16 µM): 36.4%
viability, T/C (second compound 0.0949 µM, first compound 10 µM): 31.8%
viability, T/C (second compound 0.3 µM, first compound 0.0316 µM): 59.7%
viability, T/C (second compound 0.3 µM, first compound 0.1 µM): 49.6%
viability, T/C (second compound 0.3 µM, first compound 0.316 µM): 42.8%
viability, T/C (second compound 0.3 µM, first compound 1 µM): 35.1%
viability, T/C (second compound 0.3 µM, first compound 3.16 µM): 30.6%
viability, T/C (second compound 0.3 µM, first compound 10 µM): 27.6%

C=CC(=O)Nc1cc(Nc2nccc(-c3cn(C)c4ccccc34)n2)c(OC)cc1N(C)CCN(C)C
viability, T/C (compound 0.01 µM): 103% (2×) and 87.1% and 86.9%
viability, T/C (compound 0.0316 µM): 98.9% [middle of 4 runs]
viability, T/C (compound 0.1 µM): 88.7% [middle of 4 runs]
viability, T/C (compound 0.316 µM): 78.6% [middle of 4 runs]
viability, T/C (compound 1 µM): 64.3% [middle of 4 runs]
IC50 (curve of compound): > 1000 nM
